We go through one molecule from PMC11402852, “Genotoxicity of selected cannabinoids in human lymphoblastoid TK6 cells” (Archives of Toxicology, 2024).

One data set deals with TK6 cells. The data set is described as follows: Cell cycle analysis (flow cytometry, DAPI). In kind it is cell-based, human. As to conditions: without S9, CBG 30 µM, CBD 15 µM, CBDV 40 µM. On the procedure: The cells were treated with CBG 30 µM, CBD 15 µM, CBC 15 µM, CBDV 40 µM, and CBN 15 µM for 6 or 24 h. The positive control was vincristine sulphate in a concentration of 0.0121 µM for 6 h of exposure and 0.0061 µM for 24 h. The solvent control was DMSO. Furthermore, experiments with the addition of S9 mix were performed with CBDV. In these experiments, cells were treated with CBDV (40 µM) with or without 0.25% S9 mix for 6 h. DMSO with or without the S9 mix was used as control, and the positive control was the same as mentioned above. After the treatment, cells were collected, washed twice with phosphate buffered saline (PBS) and fixed with 70% ethanol for 30 min on ice. Following each described step above, cells were centrifuged at 1000 rpm, 5 min, and 4 °C. Lastly, cells were resuspended in 1% bovine serum albumin (BSA) in PBS solution and stained with DAPI in a final concentration of 1 µg/mL for 30 min on ice. The cell distribution in different cell cycle phases was analyzed with MACSQuant® Analyzer 16 Flow Cytometer using a 450/50 nm filter and MACSQuantify™ Software 2.13 (Miltenyi Biotec, Bergisch Gladbach, Germany). For each sample, 20 000 events were analyzed. Four independent experiments were performed for 6 h of treatment without metabolic activation. Three independent experiments were done for 24 h of treatment without metabolic activation and 6 h of treatment with metabolic activation.
In general terms: In flow cytometry, cells or beads pass a laser one at a time.

A further data set has as its system colon-derived cells. Also noted: method as in Aviello et al. ([2012]). The following applies: 24 h of treatment, ref Aviello et al. ([2012]); cited from earlier work.

`C=C(C)[C@@H]1CCC(C)=C[C@H]1c1c(O)cc(CCCCC)cc1O` [CBD, cannabidiol]: the “Cell cycle distribution, 6 h” value with TK6 cells (6 h, CBC 15 µM, CBN 15 µM) was “no significant changes in the normal cell cycle distribution”. In the data set with TK6 cells (24 h), the “Cell cycle distribution, 24 h” value is on record as “accumulation of cells in the G1 phase”. For the same molecule, the “DNA damage (comet assay)” value in the data set on colon-derived cells is “did not induce DNA damage”.
